# Test results reported in article PMC9322451 (Clinical Pharmacology in Drug Development, 2022).
# Read-outs that look alike come from different tables or passages of the source.
# What was measured:
# [1] = Phase 1 part A: PK after single and multiple once-daily oral doses; format: in vivo, human; settings: for Cmax / half-life / Tmax / AUC / AUC(0-inf) / AUC(0-t): human, plasma, po; for Cmax / half-life / AUC / AUC(0-inf) / AUC(0-t): mean (CV%); for half-life: read-out: t1/2 (converted); for Tmax: median (range), read-out: Tmax
# Method: The study was conducted sequentially in 2 parts. […] Eligible participants were admitted to the clinical unit for single‐dose evaluation from days −2 to 2 and from days 29 to 31 for steady‐state PK and safety evaluation. Participants self‐administered daily doses after an overnight fast of at least 10 hours on days 4 to 30, with outpatient visits on days 3, 4, 7, 14, 21, 32, 33, and 61 (Figure S1).
# For part A, blood samples for PK assessments were collected following administration on days 1 and 30 at 0 (predose), 0.5, 0.75, 1, 1.5, 2, 3, 4, 8, 12, 24, 48, and 72 hours after dosing. In addition, predose PK samples were collected on days 4, 7, 14, and 21. PK parameters following single and multiple once‐daily dosing were evaluated using noncompartmental analysis, including the AUC over a dosing interval (AUCτ), AUC from time 0 to the last time with quantifiable concentration (AUClast), AUC from time 0 to infinite time (AUC∞), maximum plasma concentration (Cmax), minimum plasma concentration, time to maximum plasma concentration (tmax), terminal elimination half‐life (t1/2), apparent total drug clearance following oral administration (CL/F), and predose concentration.
# All statistical analyses were performed using SAS version 9.3 or higher (SAS Institute Inc., Cary, North Carolina). Analysis of PK data was performed using WinNonlin Professional Software version 8.0 or higher (Certara, LP, Princeton, New Jersey). […] Categorical data were summarized by race and treatment group in terms of number of participants with data at relevant time points, frequency counts, and percentages. PK concentrations below the limit of quantification (BLQ) at time 0 on days 1 and 30 were considered 0. Postdose BLQ data were considered missing for PK parameter calculation. For mean concentrations and graphic presentation, all BLQ data were imputed as 0.
# [2] = tested on: CYP2D6; design: method as in unpublished data; settings: ref unpublished data, read-out: half maximal inhibitory concentration; cited from earlier work
# [3] = tested on: CYP2B6; design: method as in unpublished data; settings: ref unpublished data; cited from earlier work
# [4] = tested on: organic anion and cation transporters; design: method as in unpublished data; settings: ref unpublished data, read-out: half maximal inhibitory concentration; cited from earlier work
# [5] = 10 mg, Day 30, 10 mg once daily, Japanese
# [6] = 10 mg, Day 30, 10 mg once daily, White
# [7] = 25 mg, Day 30, 25 mg once daily, Japanese
# [8] = 25 mg, Day 30, 25 mg once daily, White
# [9] = 40 mg, Day 30, 40 mg once daily, Japanese
# [10] = 40 mg, Day 30, 40 mg once daily, White
compound,measurement,setting,value
Cn1c(=O)oc2ccc(-c3ccc(C[C@@H](C#N)NC(=O)[C@@H]4CNCCCO4)cc3)cc21 [Brensocatib],Cmax,[1]; [5],80.5 ng/mL
same,half-life,[1]; [5],1350 min
same,Tmax,[1]; [5],1.26 h
same,AUC,[1]; [6],1180 ng·h/mL
same,AUC(0-inf),[1]; [6],2540 ng·h/mL
same,AUC(0-t),[1]; [6],2100 ng·h/mL
same,Cmax,[1]; [6],89.5 ng/mL
same,half-life,[1]; [6],1690 min
same,Tmax,[1]; [6],1.02 h
same,AUC,"[1]; 25 mg, Day 1, 25 mg, Japanese",2010 ng·h/mL
same,AUC(0-inf),"[1]; 25 mg, Day 1, 25 mg, Japanese",3390 ng·h/mL
same,AUC(0-t),"[1]; 25 mg, Day 1, 25 mg, Japanese",3040 ng·h/mL
same,Cmax,"[1]; 25 mg, Day 1, 25 mg, Japanese",209 ng/mL
same,half-life,"[1]; 25 mg, Day 1, 25 mg, Japanese",1300 min
same,Tmax,"[1]; 25 mg, Day 1, 25 mg, Japanese",1.5 h
same,AUC,"[1]; 25 mg, Day 1, 25 mg, White",1720 ng·h/mL
same,AUC(0-inf),"[1]; 25 mg, Day 1, 25 mg, White",3200 ng·h/mL
same,AUC(0-t),"[1]; 25 mg, Day 1, 25 mg, White",2810 ng·h/mL
same,Cmax,"[1]; 25 mg, Day 1, 25 mg, White",161 ng/mL
same,half-life,"[1]; 25 mg, Day 1, 25 mg, White",1470 min
same,Tmax,"[1]; 25 mg, Day 1, 25 mg, White",1.35 h
same,AUC,[1]; [7],4170 ng·h/mL
same,AUC(0-inf),[1]; [7],7890 ng·h/mL
same,AUC(0-t),[1]; [7],6890 ng·h/mL
same,Cmax,[1]; [7],301 ng/mL
same,half-life,[1]; [7],1400 min
same,Tmax,[1]; [7],1.75 h
same,AUC,[1]; [8],3870 ng·h/mL
same,AUC(0-inf),[1]; [8],8160 ng·h/mL
same,AUC(0-t),[1]; [8],6720 ng·h/mL
same,Cmax,[1]; [8],265 ng/mL
same,half-life,[1]; [8],1720 min
same,Tmax,[1]; [8],1.02 h
same,AUC,"[1]; 40 mg, Day 1, 40 mg, Japanese",2660 ng·h/mL
same,AUC(0-inf),"[1]; 40 mg, Day 1, 40 mg, Japanese",4580 ng·h/mL
same,AUC(0-t),"[1]; 40 mg, Day 1, 40 mg, Japanese",4040 ng·h/mL
same,Cmax,"[1]; 40 mg, Day 1, 40 mg, Japanese",245 ng/mL
same,half-life,"[1]; 40 mg, Day 1, 40 mg, Japanese",1390 min
same,Tmax,"[1]; 40 mg, Day 1, 40 mg, Japanese",1.5 h
same,AUC,"[1]; 40 mg, Day 1, 40 mg, White",3420 ng·h/mL
same,AUC(0-inf),"[1]; 40 mg, Day 1, 40 mg, White",5930 ng·h/mL
same,AUC(0-t),"[1]; 40 mg, Day 1, 40 mg, White",5300 ng·h/mL
same,Cmax,"[1]; 40 mg, Day 1, 40 mg, White",328 ng/mL
same,half-life,"[1]; 40 mg, Day 1, 40 mg, White",1330 min
same,Tmax,"[1]; 40 mg, Day 1, 40 mg, White",1.27 h
same,AUC,[1]; [9],4010 ng·h/mL
same,AUC(0-inf),[1]; [9],7110 ng·h/mL
same,AUC(0-t),[1]; [9],6400 ng·h/mL
same,Cmax,[1]; [9],334 ng/mL
same,half-life,[1]; [9],1310 min
same,Tmax,[1]; [9],1.03 h
same,AUC,[1]; [10],6470 ng·h/mL
same,AUC(0-inf),[1]; [10],12200 ng·h/mL
same,AUC(0-t),[1]; [10],10600 ng·h/mL
same,Cmax,[1]; [10],467 ng/mL
same,half-life,[1]; [10],1420 min
same,Tmax,[1]; [10],1.49 h
same,accumulation in maximum plasma concentration and AUC at steady state,[1]; once-daily dosing,≈ 2 fold
same,Dose‐normalized Cmax lower in Japanese than in White participants,[1]; pooled dose groups,19.1%
same,dose‐normalized AUCs lower in Japanese than in White participants,[1]; pooled dose groups,≈ 25.6%
same,IC50,[2],> 30 µM
same,CYP induction (significant inducer or not),[3],not a significant
same,IC50,[4],> 11 µM
